According to patent US12716077B2, “Fermentative production of isoprenoids” (DSM IP ASSETS B.V., priority 2020, dated 2026):

Assays:
[1] = Loss (consumption, evaporation or other disappearance) of the 2nd phase solvent during the fermentation; parameters: species or system Yarrowia lipolytica; conditions: loss of initial solvent volume, shake plate assay, after 4 days of growth period
Source text: As used herein, the term “not disappearing” in connection with the second phase solvents as defined herein means that the same amount of solvent present at the start of the fermentation is still detectable at the end of the fermentation process. A loss or disappearance of solvent might be due to e.g. consumption by the host cell and/or evaporation during the fermentation. The terms “loss” or “disappearance” are used interchangeably herein. Such solvent as used for the process of the present invention is also called a “stable” solvent. Thus, a stable solvent according to the present invention means a loss or disappearance of the solvent during the fermentation in the range of about 20% or less, e.g. in the range of about 20, 15, 10, 8, 5, 3, 2, 1% or even no loss or disappearance of the solvent during the fermentation.
Shake plate assay. Typically, 200 μl of 0.25% yeast extract, 0.5% peptone (0.25X YP) is inoculated with 10 μl of freshly grown Yarrowia and overlaid with 200 μl of solvent. Candida rugosa Lipase (Creative enzymes) was resuspended in PBS and added to the growth media when the carbon source was 2% corn oil. […] The second phase (Drakeol 5, or others listed in table 6) fraction was removed from the shake plate wells and analyzed by UPLC on a normal phase column and/or C4 HPLC, with a photo-diode array detector (see details below). […]

[2] = Density and viscosity in dependence of the solvent used as 2nd phase; format: physicochemical
Procedure: The performance of said 2nd phases were tested with regards to growth, loss (consumption, evaporation or other ways of disappearance) of the solvents during the fermentation and the density and viscosity of the cultivation medium, wherein the test was carried out after 4 days of growth period.

Loss [1]: 100%
Loss ([1]; listed as n-dodecane): completely disappeared
Density [2]: 0.75 g/mL
Viscosity ([2]; measured at 20° C.): 1.34
SMILES: CCCCCCCCCCCC [dode, n-dodecane]
